The text below walks through data of patent publication US9120804B2, “8-substituted 2-amino-[1,2,4] triazolo [1, 5-A] pyrazines as Syk tryrosine kinase inhibitors and GCN2 serin kinase inhibitors” (Merck Patent GmbH, priority 2012, dated 2015).

Each structure is given as a SMILES string.

In this assay the target is T1, SYK (Homo sapiens, UniProt P43405).
T1 construct: 2.5 nM SYK, 400 nM Biotin-Aha-Aha-KEDPDYEWPSAKK
Kind of assay: SYK flash plate assay (enzyme assay). Format: biochemical. Summed up:
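Radiometric Flashplate format: biotinylated peptide substrate (400 nM) and 33P-labelled ATP (10 μM) react with 2.5 nM enzyme for 1 hour at 30 °C in Hepes buffer, pH 7.5. After EDTA quench and washing, counts are taken; staurosporine defines non-specific signal, and IC50 values are derived.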
Regarding `CC1(C)C(=O)Nc2cc(Nc3nc4c(N5CCc6ccc(C#N)cc65)nccn4n3)ccc21` [E134, 1-[2-(3,3-dimethyl-2-oxo-2,3-dihydro-1H-indol-6-ylamino)-[1,2,4]triazolo[1,5-a]pyrazin-8-yl]-2,3-dihydro-1H-indole-6-carbonitrile], the IC50 was < 100 nM. To `CC1(C)C(=O)Nc2cc(Nc3nc4c(N5CCc6ccc(C(N)=O)cc6C5)nccn4n3)ccc21` [E128, 2-[2-(3,3-dimethyl-2-oxo-2,3-dihydro-1H-indol-6-ylamino)-[1,2,4]triazolo[1,5-a]pyrazin-8-yl]-1,2,3,4-tetrahydro-isoquinoline-7-carboxylic acid amide] belongs < 100 nM; to `CC1(C)C(=O)Nc2cc(Nc3nc4c(N5CCCC(=O)CC5)nccn4n3)ccc21` [E72, 3,3-dimethyl-6-[8-(4-oxo-azepan-1-yl)-[1,2,4]triazolo[1,5-a]pyrazin-2-ylamino]-1,3-dihydro-indol-2-one], < 100 nM; to `CC1(C)C(=O)Nc2cc(Nc3nc4c(NC(=O)c5ccc6c(c5)NCC6)nccn4n3)ccc21` [E129, 2,3-dihydro-1H-indole-6-carboxylic acid [2-(3,3-dimethyl-2-oxo-2,3-dihydro-1H-indol-6-ylamino)-[1,2,4]triazolo[1,5-a]pyrazin-8-yl]-amide], 300 to 3000 nM.

With `CC1(C)C(=O)Nc2cc(Nc3nc4c(N5CCC6(CCNC6)C5)nccn4n3)ccc21` (stereo not drawn) [E87, 6-[8-(2,7-diaza-spiro[4.4]non-2-yl)-[1,2,4]triazolo[1,5-a]pyrazin-2-ylamino]-3,3-dimethyl-1,3-dihydro-indol-2-one], the IC50 is < 100 nM. With `CC1(C)C(=O)Nc2cc(Nc3nc4c(-c5cnc6c(c5)CCCO6)nccn4n3)ccc21` [E116, 6-[8-(3,4-Dihydro-2H-pyrano[2,3-b]pyridin-6-yl)-[1,2,4]triazolo[1,5-a]pyrazin-2-ylamino]-3,3-dimethyl-1,3-dihydro-indol-2-one], the IC50 is < 100 nM. Compound `CC1(C)C(=O)Nc2cc(Nc3nc4c(N5CC[C@]6(CNC(=O)C6)C5)nccn4n3)ccc21` [E52, 3,3-dimethyl-6-[8-((S)-8-oxo-2,7-diaza-spiro[4.4]non-2-yl)-[1,2,4]triazolo[1,5-a]pyrazin-2-ylamino]-1,3-dihydro-indol-2-one] returned an IC50 of 100 to 300 nM. As for `CN(C)c1ccc(-c2nccn3nc(Nc4ccc5c(c4)NC(=O)C5(C)C)nc23)cn1` [E139, 6-[8-(6-dimethylamino-pyridin-3-yl)-[1,2,4]triazolo[1,5-a]pyrazin-2-ylamino]-3,3-dimethyl-1,3-dihydro-indol-2-one], the figure is < 100 nM; as for `CC1(C)CCNc2cc(Nc3nc4c(N5CCC6(CC5)CNC(=O)O6)nccn4n3)ccc21` [E53, 8-[2-(4,4-dimethyl-1,2,3,4-tetrahydro-quinolin-7-ylamino)-[1,2,4]triazolo[1,5-a]pyrazin-8-yl]-1-oxa-3,8-diaza-spiro[4.5]decan-2-one], < 100 nM. Compound `CC1(C)C(=O)Nc2cc(Nc3nc4c(N5CCC(CO)C5)nccn4n3)ccc21` (stereo not drawn) [E30, 6-[8-(3-hydroxymethyl-pyrrolidin-1-yl)-[1,2,4]triazolo[1,5-a]pyrazin-2-ylamino]-3,3-dimethyl-1,3-dihydro-indol-2-one] returned an IC50 of 3000 to 50000 nM. Consider `CC1(C)C(=O)Nc2cc(Nc3nc4c(N5CCC(c6ncc(C(F)(F)F)[nH]6)CC5)nccn4n3)ccc21` [E59], for which the IC50 is < 100 nM. On to `CC1(C)C(=O)Nc2cc(Nc3nc4c(NCCCNc5nccn6nc(Nc7ccc8c(c7)NC(=O)C8(C)C)nc56)nccn4n3)ccc21` [E117, 6-[[8-[3-[[2-[(3,3-dimethyl-2-oxo-indolin-6-yl)amino]-[1,2,4]triazolo[1,5-a]pyrazin-8-yl]amino]propylamino]-[1,2,4]triazolo[1,5-a]pyrazin-2-yl]amino]-3,3-dimethyl-indolin-2-one], for which the IC50 fell in the range of 3000 to 50000 nM.
